Assay results published in PubChem BioAssay AID2305 (GlaxoSmithKline (GSK), 2010).

Tested on: P. falciparum 3D7 growth, pLDH absorbance
Assay: blood-stage malaria parasite growth potency – strain 3D7, dose response (AID 2305)

| SMILES | IC50 [nM] |
| --- | --- |
| O=C(NCCN1CCC(c2ncc(-c3ccccc3)o2)CC1)c1ccc(NC(=O)c2ccc(Cl)cc2)cc1 | 240 |
| CCN1CCC(NCc2ccc(-c3ccc(Cl)s3)cc2)CC1 | 940 |
| NCC1(c2nc(-c3ccc(Cl)c(O)c3)c(-c3ccncc3)[nH]2)CCCCC1 | 740 |
| Cc1[nH]c(C)c(-c2ccc(Oc3ccccc3)cc2)c(=O)c1Br | 50 |
| CCOc1c(Br)cc(C)cc1CNCCCNc1nc2ccccc2[nH]1 | 670 |
| CCCNc1ccc(-c2cc(C(N)=O)c3[nH]cc(C4CCN(S(=O)(=O)CC)CC4)c3c2)cn1 | 820 |
| COc1ccc2nccc(NN=Cc3cccc([N+](=O)[O-])c3)c2c1 | 400 |
| CCCCCCCc1c(C)[nH]c2ccc(F)cc2c1=O | 290 |
| CS(=O)(=O)c1ccc(CCNCc2ccc(-c3ccc(CN(C(=O)c4ccco4)C4CCN(Cc5ccccc5)CC4)cc3)nc2)cc1 | 880 |
| CC(C)C[C@@H](/C=N/N1CCOC1=O)NC(=O)[C@H](CC(C)C)NC(=O)c1ccc(OCCN2CCOCC2)cc1 | 220 |
| CCN(c1ccccc1)S(=O)(=O)c1ccc(NC(=O)c2cc(-c3cc(C)ccc3O)n[nH]2)cc1 | 770 |
| CCCOc1ccc(CCNCCCCNCCc2ccc(OCCC)c3ccccc23)c2ccccc12 | 920 |
| O=C(NC1CCCCC1)N(Cc1ccc(-c2ccc(CNCc3ccc4c(c3)OCO4)cc2)cc1)C1CCN(Cc2ccccc2)CC1 | 690 |
| O=C(Nc1ccc(C(F)(F)F)cc1)NC1CCN(c2ccnc3ccccc23)C1 (stereo not drawn) | 90 |
| O=C(Nc1cc2cc(-c3ccc(CN4CCCCC4)cc3)ccc2n2cnnc12)NC1CCCC1 | 1520 |
| N#Cc1ccc(-c2ccc(C(=O)NCCCCN3CC=C(c4ccc5c(c4OCC4CC4)CCCC5)CC3)cc2)cc1 | 620 |
| COc1cccc(-c2cc(C(=O)NC3CCC(N4CCC(c5ccccc5C)CC4)CC3)[nH]n2)c1 (stereo not drawn) | 1120 |
| COc1cc(NC(=O)/C=C/c2cc3ccccc3n2C)ccc1OCCN(C(C)C)C(C)C | 390 |
| CSCCC(C(=O)O)N1C(=O)c2ccccc2C1=O (stereo not drawn) | 1030 |
| CCCN(CCC)CCCCC(C)Nc1c2ccc(Cl)cc2nc2ccc(OC)cc12 (stereo not drawn) | 140 |
| Cc1ccc2c(NC(=O)Nc3ccc(N(C)C)cc3)cc(C)nc2c1 | 820 |
| CN1CCN(c2ccnc3ccc(NC(=O)Nc4cccc5c(Br)cccc45)cc23)CC1 | 150 |
| COc1cc2nc(N3CCC(CCCC4CCNCC4)CC3)nc(NCc3ccccn3)c2cc1OC | 760 |
| Cc1ccc(Nc2nccc(NCC(O)c3cccc(C)c3)n2)cc1 (stereo not drawn) | 1020 |
| CC(C)(C)c1ccc2nccc(Nc3cccc(O)c3)c2c1 | 970 |

| SMILES | IC50 [nM] |
| --- | --- |
| FC(F)(F)c1cccc(Nc2nc3nonc3nc2NC2C3CC4CC(C3)CC2C4)c1 (stereo not drawn) | 660 |
| C=CCC1OC(=O)c2cc(OC)cc(OC)c21 (stereo not drawn) | 340 |
| N#Cc1ccc(Sc2nnc(-c3ccccc3Cl)n2CC2CCCCC2)cc1[N+](=O)[O-] | 1160 |
| COc1ccc2nccc(N(C)CC3(O)CCN(CC(O)c4ccc5c(c4)NC(=O)CS5)CC3)c2n1 (stereo not drawn) | 590 |
| COc1ccc2c(NN=Cc3cccc([N+](=O)[O-])c3)ccnc2c1 | 850 |
| COc1ccc2nccc([C@@H](O)CN3CCC(NC(=O)Cc4ccc(Br)c5ccccc45)CC3)c2c1 | 820 |
| Cc1cc(-c2ccc3c(c2)CCN(CCC2CCC(NC(=O)/C=C/c4cccc(F)c4)CC2)CC3)on1 (stereo not drawn) | 750 |
| CC(C)Oc1ccc2c(c1)OC(c1ccccc1)(C(F)(F)F)NC2=O (stereo not drawn) | 140 |
| CN(c1cc(NC(=O)c2cccs2)ccn1)C1CCN(Cc2cccc(C#N)c2)CC1 | 1260 |
| O=S(=O)(c1ccc(Oc2ccccc2)cc1)N(CCC(O)(C(F)(F)F)C(F)(F)F)Cc1cccc(O)c1 | 490 |
| CCN(CC)CCCN(C(=O)Nc1ccc(C#N)cc1)c1nc(-c2ccc(F)cc2)cs1 | 650 |
| Cc1nn(CC(O)Cn2c3ccc(Br)cc3c3cc(Br)ccc32)c(C)c1Br (stereo not drawn) | 710 |
| Cc1cccc2[nH]c(-c3cccc(-c4cccc(NC(=O)c5cn(C)c(=O)n5C)c4)c3)nc12 | 500 |
| O=C(NCCN1CCCCC1)c1ccc(Nc2nccc(Nc3ccc(Oc4ccccc4)cc3)n2)cc1 | 550 |
| Fc1cccc(C=NNc2ccnc3cc(Cl)ccc23)c1 | 530 |
| Cc1ccc(OCCCCONC(=O)c2ccccc2)cc1 | 150 |
| CC(C)NCc1ccc(-c2ccc(-c3nc4ccc(F)cc4[nH]3)cc2)cc1 | 210 |
| CC(C)(C)OC(=O)N1CCN(c2ccccc2NC(=O)c2cccc(C(F)(F)F)c2Oc2ccc(F)cc2)CC1 | 860 |
| O=C(COc1ccc(Cl)c(Cl)c1)NCCCCCN1CCCN(C(=O)Nc2cc(Cl)cc(Cl)c2)CC1 | 1140 |
| CC(=NN=C(N)N)C(=O)Nc1ccc(Cl)c(Cl)c1 | 170 |
| N=c1ccn(CC(=NO)c2ccc(Cl)c(Cl)c2)cc1 | 940 |
| O=C(Nc1ccccc1F)NC1CCN(c2ccnc(Nc3ccc(F)cc3)n2)C1 (stereo not drawn) | 850 |
| CC[C@H](C)CNC(=O)c1cccc(-c2ccc(CN3CCC(N4CCCC4)CC3)cc2)n1 | 790 |
| COc1ccccc1NS(=O)(=O)c1cc(C(=O)Nc2ccc(N3CCOCC3)c(S(=O)(=O)Nc3ccccc3Cl)c2)ccc1Cl | 830 |
| Cc1cc(N2CCCC2)nc(Nc2ccc(NC(=O)c3ccc4c(c3)OCO4)cc2)n1 | 810 |

| SMILES | IC50 [nM] |
| --- | --- |
| O=C(Cc1cnc[nH]1)Nc1ccc(-c2ccc(-c3nc4ccc(F)cc4[nH]3)cc2)cc1 | 730 |
| Cc1cccc2[nH]c(-c3ccc(-c4cccc(CN5CCCC5CN)c4)cc3)nc12 (stereo not drawn) | 910 |
| COc1ccc2nccc([C@@H](O)CN3CCC(NC(=O)/C=C/c4cccc(NC(C)=O)c4)CC3)c2c1 | 960 |
| CCNC(=O)NC1CCN(Cc2c(-c3cccs3)nc3ccccc3c2C(=O)N[C@@H](C)C2CCCCC2)CC1 | 90 |
| O=C(c1cccc(Br)c1)N1CCN(c2ccc([N+](=O)[O-])c(NC3CC3)c2)CC1 | 940 |
| CCNc1cc(C(=O)N[C@@H](Cc2ccc(F)c(F)c2)[C@H](O)CNC2CCCCC2)cc(N2CCCCS2(=O)=O)c1 | 120 |
| CSc1ccc(CN2CCC(NC(=O)c3ccc(-c4cccc(Cl)c4)s3)CC2)cc1 | 1290 |
| CN(c1ccccc1C(=O)Nc1ccccc1Oc1ccccc1)S(=O)(=O)c1ccccc1 | 1150 |
| O=C(Nc1ccc(-c2cccc(-c3nc4ccc(F)cc4[nH]3)c2)cc1)c1cnn2cccnc12 | 650 |
| O=C(NC1CCCCC1)N(Cc1ccc(-c2ccc(CNC3CCCC3)cc2)cc1)C1CCN(Cc2ccccc2)CC1 | 780 |
| CCCCNC(=O)[C@@H]1CCCN1C(=O)c1ccc(O)c(-c2ccc(Cl)c(Cl)c2)c1 | 750 |
| CC(C)(CNCc1ccc(OC(F)(F)F)cc1)c1nc(-c2ccc(Cl)c(O)c2)c(-c2ccncc2)[nH]1 | 550 |
| NC(N)=NC(=O)Nc1cc(Br)c(Br)c(Br)c1 | 810 |
| COC(=O)c1ccc(CC(C)NCC(O)c2cccc(Cl)c2Cl)cc1 (stereo not drawn) | 550 |
| O=C(/C=C/c1ccc(Cl)c(Cl)c1)NCCCCCN1CCN(C(=O)Nc2ccc(C(F)(F)F)cc2)CC1 | 720 |
| Clc1ccc(CNCCCCCCCNCc2ccc(Cl)c(Cl)c2)cc1Cl | 370 |
| NCCCCc1c(-c2ccc(Cl)c(Cl)c2)[nH]c2ccc(Cl)cc12 | 910 |
| CN1CCN(CCCN(Cc2cccc(-c3cccc(CNCCc4ccccc4)c3)c2)C(=O)Nc2ccccc2)CC1 | 580 |
| CN(C)CCCN1CCN(C(=O)c2cc3cc(-c4ccccc4)ccc3n2S(=O)(=O)c2ccccc2)CC1 | 120 |
| C[C@H](Cc1ccc(OCCCCCOc2ccc(C[C@@H](C)NC[C@H](O)c3cccc(Cl)c3)cc2)cc1)NC[C@H](O)c1cccc(Cl)c1 | 190 |
| Cc1ccc(NC(=O)c2cn(-c3ccccc3)nc2-c2ccc(F)cc2)cc1[N+](=O)[O-] | 1000 |
| COCCNc1nc(N2CCC(CNC(=O)c3ccc(-c4ccc(C(=O)N(C)C)cc4C)cc3)CC2)nc2cc(OC)c(OC)cc12 | 1020 |
| COc1ccc(NC(=O)N2CCCN(CCCCCNC(=O)/C=C/c3ccc(Cl)cc3)CC2)cc1Cl | 810 |
| O=C(NC1CCN(Cc2cccc(C(F)(F)F)c2)CC1)c1ccc(-c2cccc(Cl)c2)s1 | 1130 |
| COc1ccc2c(NN=CC=Cc3ccccc3)cc(C)nc2c1 | 840 |

| SMILES | IC50 [nM] |
| --- | --- |
| Fc1ccc2nc(-c3ccc(-c4ccc(CN5CCC(CCN6CCCCC6)CC5)cc4)s3)[nH]c2c1 | 140 |
| OCC1CCN(Cc2ccc(-c3ccc(-c4nc5ccc(C(F)(F)F)cc5[nH]4)s3)cc2)CC1 | 480 |
| COc1ccc(NS(=O)(=O)c2cccc(C(=O)Nc3ccc(C(F)(F)F)cc3)c2)cc1N1CCN(CC(C)C)CC1 | 840 |
| Cc1cc(=O)c2cc(-c3ccc(OC(F)(F)F)cc3)ccc2[nH]1 | 480 |
| Cc1cc(N(C)C)nc(Nc2ccc(NC(=O)c3ccccc3C)cc2)n1 | 1130 |
| OCCCCCCNc1nc(NCc2ccccc2-c2ccc(C(F)(F)F)cc2)nc(N2CCNCC2)n1 | 1440 |
| O=C(/C=C/c1ccc(Cl)c(Cl)c1)NCCCCN1CCCN(C(=O)Nc2ccc(C(F)(F)F)cc2)CC1 | 850 |
| CC1CCCN(S(=O)(=O)c2cc(Br)cc3c2N(C(=O)C2CC2)CC3)C1 (stereo not drawn) | 720 |
| c1ccc2c(c1)ncc1c3ccccc3[nH]c21 | 870 |
| O=C1c2ccccc2-n2c1nc1ccccc1c2=O | 860 |
| OC(CNCc1ccco1)Cn1c2ccc(Br)cc2c2cc(Br)ccc21 (stereo not drawn) | 1070 |
| OC1CCN(c2cc(-c3ccccn3)nc(-c3ccccn3)n2)CC1 | 1050 |
| NOCCCCOc1cc(Cl)c(Cl)cc1Cl | 170 |
| O=C(/C=C/c1ccc(Cl)c(Cl)c1)NCCCCCN1CCC(NC(=O)Nc2cc(Cl)nc(Cl)c2)CC1 | 980 |
| COc1ccccc1C1CCN(C2CCC(NC(=O)c3cc(-c4ccc(Cl)cc4)cs3)CC2)CC1 (stereo not drawn) | 380 |
| O=C(Nc1ccc(F)cc1F)NC1CCN(CCCCCNC(=O)[C@@H]2C[C@H]2c2ccc(Cl)c(Cl)c2)CC1 | 500 |
| c1ccc(COc2ccccc2COc2ccccc2-c2ccc3cccnc3n2)cc1 | 920 |
| O=C(Nc1ccccc1F)NC1CCN(c2ccnc(Nc3ccc(F)cc3)n2)CC1 | 750 |
| CCCCn1c(Sc2ccc(C#N)c([N+](=O)[O-])c2)nnc1-c1ccc(OC)cc1 | 1030 |
| CC1(C)N=C(N)N=C(N)N1OCc1cc(Cl)c(CON2C(N)=NC(N)=NC2(C)C)cc1Cl | 40 |
| Cc1cccc(C)c1CNc1nc(N2CCOCC2)cc2c(C)c(C)[nH]c12 | 1240 |
| COc1ccc(-c2ccc(NC(=O)c3cccc(Cl)c3)cc2)cc1CN1CCC(O)CC1 | 710 |
| O=C(Nc1ccc(Cl)c(Cl)c1)N1CCC(NCc2cccc([N+](=O)[O-])c2)CC1 | 760 |
